Values belong to the compound of their own block, whether it stands above or below them.
Key:
thrombus in AV shunt = test: Test Example 5: anti-thrombotic activity (rat AV shunt model); assay type: in vivo; conditions: mean ± S.E., n=5, vehicle 72.7 ± 2.7
Description: AV shunt model using 7-week old male Crlj: CD (SD) rats were prepared, and anti thrombotic activities when the compounds according to the present invention were administered orally were examined.
Required amount of the test compounds were weighed and suspended by adding 0.5% CMC (carboxymethylcellulose)-Na solution little by little, and the solutions (10 mg/kg or 30 mg/kg solution) were prepared so that their final concentration became 2 mg/ml or 6 mg/ml using a graduated cylinder. 5 ml was prepared for 1 course.
To 7-week old Crlj: CD (SD) male rats, 5 ml/kg of vehicle (0.5% CMC-Na solution) or 5 ml/kg of the administering solution of the test compound (10 mg/kg or 30 mg/kg) were administered orally for 4 days. The administration on the 4th day was carried out about 1 hour before the following perfusion start.
On the connected part where the silk thread was through, parafilm was wrapped around to avoid blood leakage.
Rats were anesthetized with pentobarbital (50 mg/kg; intraperitoneally). Saline was filled in the above catheter, and each of the ends of the catheter was inserted in right carotid artery and left carotid artery, respectively, and blood was circulated. 30 minutes later, the catheter was pinched with forceps to stop blood flow, and tube parts where the silk thread was through were cut and removed. The silk thread was carefully removed from the tubes, remaining wet weight was weighed after removing the liquid phase with filter paper, and further subtraction of the weight of the silk thread, gave the thrombus weight.
For the thrombus weight in each group, an average value±standard error (S.E.) was calculated. For the significance test between the vehicle administered group and the compound according to the present invention administered group, Dunnett's multiple comparison was carried out (significance level 5%). For the test, the SAS System Release 8.2 (TS2M0) for Windows (Registered Trademark) (SAS Institute Inc.) and its cooperative system EXSAS Ver. 7.10 (Arm Systex Co. Ltd.) were employed.

recombinant human PAI-1 [1] = molecular target: T1, recombinant human PAI-1 (Homo sapiens, UniProt P05121); test: Test Example 1: human PAI-1 inhibitory activity (tPA fluorogenic substrate, pH 7.5 Tris buffer); assay type: biochemical
T1 construct: purchased Molecular Innovations, Inc
T1 sequence (P05121 24-402): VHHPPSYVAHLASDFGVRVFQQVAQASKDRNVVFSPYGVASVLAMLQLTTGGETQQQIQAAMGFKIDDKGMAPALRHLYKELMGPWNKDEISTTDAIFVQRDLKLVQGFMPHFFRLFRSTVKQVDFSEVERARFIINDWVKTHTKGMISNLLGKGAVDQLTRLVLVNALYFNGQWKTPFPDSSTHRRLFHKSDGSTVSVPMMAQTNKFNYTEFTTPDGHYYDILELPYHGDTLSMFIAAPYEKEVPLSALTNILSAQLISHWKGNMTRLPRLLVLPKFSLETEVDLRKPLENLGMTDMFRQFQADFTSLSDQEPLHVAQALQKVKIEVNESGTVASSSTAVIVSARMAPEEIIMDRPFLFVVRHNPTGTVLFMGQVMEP
Description: 50 mM Tris, 150 mM NaCl, 10 μg/ml BSA, 0.01% Tween80 (SIGMA-ALDRICH Corporation)

recombinant human PAI-1 [2] = molecular target: T1, recombinant human PAI-1; test: Test Example 2: human PAI-1 inhibitory activity (tPA fluorogenic substrate, pH 7.4 HEPES buffer); assay type: biochemical; conditions: for IC50: human PAI-1, calculated from the inhibition rates
Description: 0.1 M HEPES, 0.1 M NaCl. 1 mM EDTA. 0.1% Polyethylene glycol 8,000 (Hampton Research Corporation),
2 mM Dimethyldecylphoshine oxide [Apo-10] (Fluka Corporation)

recombinant human PAI-1 [3] = molecular target: T1, recombinant human PAI-1; test: Test Example 4: human PAI-1 inhibitory activity (amount of PAI-1 bound to plate-coated tPA, ELISA); assay type: binding; conditions: read-out: Inhibition Rate of PAI-1 Activity (%)
Description: 100 μl of tPA solution, where one-chain recombinant tPA (hereinafter referred to as tPA; American diagnostica, inc.) had been diluted with Buffer A to achieve a concentration of 10 μg/ml, was added to each well of a 96-well plate (Nunc Maxisorp), and the plate was incubated for one night at 4° C. to be coated with tPA. Then, after suction of tPA solution from the 96-well plate, the plate was rinsed successively with Buffer A and Buffer B.
To Buffer B, solutions of the compound according to the present invention dissolved with DMSO (final DMSO concentration: 0.2%) and recombinant human PAI-1 (Molecular Innovations, Inc.) were added. The mixtures were blended so that the final concentrations would be 0.1 to 3.0 μM and 50 ng/ml respectively, and were incubated for 15 minutes on ice. These mixed solutions were added to the rinsed 96-well plate at 100 μl/well, and incubated for 60 minutes at room temperature. To prepare a calibration curve, PAI-1 solutions without the compound according to the present invention (solutions where the final concentrations being 100, 50, 25, 12.5, 6.25, 3.13, or 1.56 ng/ml PAI-1) were added at 100 μl/well, and the plate was incubated for 60 minutes at room temperature, as standard.
After incubation, the reaction mixture was removed by suction, and each well was rinsed with Wash Buffer. Next, anti-human PAI-1 monoclonal antibody (PROGEN Inc.) diluted with Buffer C to be 3.0 μg/ml was added to the 96-well plate at 100 μl/well, and the plate was incubated for 1 hour at room temperature. After rinsing each well with Wash Buffer, alkaline phosphatase-labeled goat anti-mouse IgG (H+L) (Jackson ImmunoResearch, Inc.) diluted with Buffer D to be 0.12 μg/ml was added at 100 μl/well, and the plate was incubated for 1 hour at room temperature. After rinsing each well with Wash Buffer, 1.0 mg/ml p-Nitrophenyl Phosphate (SIGMA) was added to the 96-well plate at 100 μl/well to start the reaction. After 30 to 60 minutes, 25 μl of 0.5 N NaOH was added to stop the reaction, and the absorbance was measured at 405 nm using a multiplate reader (GENios; TECAN G.M.B.H.). Based on the calibration curve prepared from the standard wells, amounts of PAI-1 bound to tPA in the wells that had been treated with the compound according to the present invention were calculated, and the PAI-1 inhibition rates by the compounds according to the present invention were obtained by the following equation. [PAI-1 Inhibition Rate (%)]=[1−(amount of PAI-1 bound to tPA on the well by treatment with the compound according to the present invention)/(amount of PAI-1 bound to tPA on the well by treatment with PAI-1 solution not including the compound according to the present invention (solution having the final concentration of 50 ng/ml PAI-1)]×100

recombinant rat PAI-1 = molecular target: T2, recombinant rat PAI-1 (Rattus norvegicus, UniProt P20961); test: Test Example 3: rat PAI-1 inhibitory activity (as Test Example 2 with rat PAI-1); assay type: biochemical; conditions: rat PAI-1; for IC50: calculated from the inhibition rates
T2 construct: purchased Molecular Innovations, Inc
T2 sequence (P20961 24-402): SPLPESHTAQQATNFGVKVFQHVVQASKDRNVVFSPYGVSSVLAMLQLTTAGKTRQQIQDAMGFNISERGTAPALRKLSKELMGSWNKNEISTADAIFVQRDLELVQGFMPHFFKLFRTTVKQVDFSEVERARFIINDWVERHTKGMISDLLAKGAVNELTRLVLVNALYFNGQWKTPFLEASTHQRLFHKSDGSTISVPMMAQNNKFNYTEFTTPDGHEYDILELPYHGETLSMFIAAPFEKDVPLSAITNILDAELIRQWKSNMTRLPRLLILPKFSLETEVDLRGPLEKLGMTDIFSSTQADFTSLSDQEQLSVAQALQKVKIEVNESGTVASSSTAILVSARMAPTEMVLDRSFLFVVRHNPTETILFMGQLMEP
Description: To this solution, 6 μl of 80 nM recombinant human PAI-1 (Molecular Innovations, Inc.) solution prepared with Tris buffer was added, and the plate was incubated for 5 minutes at room temperature. Furthermore, 30 μl of 800 IU/ml two-chain tPA (Activity Standard; American diagnostica, inc.) prepared with Tris buffer was added, and the mixed solution was incubated for 15 minutes at room temperature. Then, 30 μl of 400 μM fluorogenic substrate (Pyr-Gly-Arg-MCA; Peptide Institute, Inc.) for tPA prepared with Tris buffer was added and reacted for 30 minutes at room temperature.

[4] = Compound Concentration 5 μM, Tris buffer
[5] = Compound Concentration 10 μM, Tris buffer

Inhibition Rate of PAI-1 Activity (%) (recombinant human PAI-1 [1]; [4]): 37%
Inhibition Rate of PAI-1 Activity (%) (recombinant human PAI-1 [1]; [5]): 67%
Inhibition Rate of PAI-1 Activity (%) (recombinant human PAI-1 [1]; Compound Concentration 25 μM, Tris buffer): 97%
Compound: CN(C(=O)C(=O)O)c1cc(-c2ccc(OC(F)(F)F)cc2)ccc1OCc1ccc(C(C)(C)C)cc1 [Compound 17]
Thrombus Weight (thrombus in AV shunt; 30 mg/kg/day orally for 4 days): 60.4 ± 3.8 mg

Compound: CC(C)(C)c1ccc(COc2ccc(-c3ccc(OC(F)(F)F)cc3)cc2CCC(=O)O)cc1 [Compound 5]
Thrombus Weight (thrombus in AV shunt; 10 mg/kg/day orally for 4 days): 57.5 ± 5.0 mg

Compound: CC(C)(C)c1ccc(CN(C(=O)C(=O)O)c2ccc(-c3ccc(OC(F)(F)F)cc3)cc2)cc1 [Compound 129]
Thrombus Weight (thrombus in AV shunt; 10 mg/kg/day orally for 4 days): 56.7 ± 3.8 mg

inhibition at 0.1 µM (recombinant human PAI-1 [2]; Compound Concentration 0.1 μM, HEPES buffer, read-out: Inhibition Rate of PAI-1 Activity (%)): 0%
inhibition at 0.3 µM (recombinant human PAI-1 [2]; Compound Concentration 0.3 μM, HEPES buffer, read-out: Inhibition Rate of PAI-1 Activity (%)): 9%
inhibition at 1 µM (recombinant human PAI-1 [2]; Compound Concentration 1 μM, HEPES buffer, read-out: Inhibition Rate of PAI-1 Activity (%)): 55%
inhibition at 3 µM (recombinant human PAI-1 [2]; Compound Concentration 3 μM, HEPES buffer, read-out: Inhibition Rate of PAI-1 Activity (%)): 97%
IC50 (recombinant human PAI-1 [2]): 0.9 µM
inhibition at 0.3 µM (recombinant human PAI-1 [3]; Compound Concentration 0.3 μM): 13%
inhibition at 1 µM (recombinant human PAI-1 [3]; Compound Concentration 1 μM): 28%
inhibition at 3 µM (recombinant human PAI-1 [3]; Compound Concentration 3 μM): 50%
IC50 (recombinant rat PAI-1): 1.46 µM
inhibition at 0.3 µM (recombinant rat PAI-1; compound concentration 0.3 μM, read-out: Inhibition Rate of PAI-1 Activity (%)): 4%
inhibition at 1 µM (recombinant rat PAI-1; compound concentration 1 μM, read-out: Inhibition Rate of PAI-1 Activity (%)): 20%
inhibition at 3 µM (recombinant rat PAI-1; compound concentration 3 μM, read-out: Inhibition Rate of PAI-1 Activity (%)): 93%
inhibition at 10 µM (recombinant rat PAI-1; compound concentration 10 μM, read-out: Inhibition Rate of PAI-1 Activity (%)): > 99%
inhibition at […] (recombinant human PAI-1 [1]; Compound Concentration 2.5 μM, Tris buffer, read-out: Inhibition Rate of PAI-1 Activity (%)): 49%
inhibition at 5 µM (recombinant human PAI-1 [1]; Compound Concentration 5 μM, Tris buffer, read-out: Inhibition Rate of PAI-1 Activity (%)): 78%
inhibition at 10 µM (recombinant human PAI-1 [1]; Compound Concentration 10 μM, Tris buffer, read-out: Inhibition Rate of PAI-1 Activity (%)): 93%
Compound: CCC(CC)Oc1ccc(-c2ccc(OC(F)(F)F)cc2)cc1N(CCCc1ccccc1)C(=O)C(=O)O [Compound 233]

Compound: O=C(O)CCc1cc(-c2ccc(OC(F)(F)F)cc2)ccc1OCCCCc1ccccc1 [Compound 102]
IC50 (recombinant human PAI-1 [2]): 1.32 µM
inhibition at 1 µM (recombinant human PAI-1 [3]): 0%
IC50 (recombinant rat PAI-1): 2.75 µM

Compound: CC(C)c1ccc(Oc2ccc(CCC(=O)O)c(Oc3ccc(C(C)C)cc3)c2)cc1 [Compound 73]
IC50 (recombinant human PAI-1 [2]): 1.27 µM
IC50 (recombinant rat PAI-1): 2.1 µM
inhibition at 25 µM (recombinant human PAI-1 [1]; read-out: Inhibition Rate of PAI-1 Activity (%)): > 99%

Compound: CCN(CC)c1ccc(N(Cc2ccc(C(C)(C)C)cc2)C(=O)C(=O)O)c(-c2ccc(OC(F)(F)F)cc2)c1 [Compound 208]
inhibition at 1 µM (recombinant human PAI-1 [3]): 13%

Inhibition Rate of PAI-1 Activity (%) (recombinant human PAI-1 [2]; Compound Concentration 0.1 μM, HEPES buffer): 4%
Inhibition Rate of PAI-1 Activity (%) (recombinant human PAI-1 [2]; Compound Concentration 0.3 μM, HEPES buffer): 2%
Inhibition Rate of PAI-1 Activity (%) (recombinant human PAI-1 [2]; Compound Concentration 1 μM, HEPES buffer): 40%
Inhibition Rate of PAI-1 Activity (%) (recombinant human PAI-1 [2]; Compound Concentration 3 μM, HEPES buffer): 96%
Inhibition Rate of PAI-1 Activity (%) (recombinant rat PAI-1; compound concentration 0.3 μM): 0%
Inhibition Rate of PAI-1 Activity (%) (recombinant rat PAI-1; compound concentration 1 μM): 8%
Inhibition Rate of PAI-1 Activity (%) (recombinant rat PAI-1; compound concentration 3 μM): 77%
Inhibition Rate of PAI-1 Activity (%) (recombinant rat PAI-1; compound concentration 10 μM): 97%
Inhibition Rate of PAI-1 Activity (%) (recombinant human PAI-1 [1]; [4]): 87%
Inhibition Rate of PAI-1 Activity (%) (recombinant human PAI-1 [1]; [5]): 93%
Compound: CN(C)c1ccc(N(Cc2ccc(C(C)(C)C)cc2)C(=O)C(=O)O)cc1-c1ccc(OC(F)(F)F)cc1 [Compound 214]

From patent US8633245B2, “PAI-1 inhibitor” (Institute of Medicinal Molecular Design, Inc., priority 2008, dated 2014)
